In article PMC3380012, “Wild-Type Phosphoribosylpyrophosphate Synthase (PRS) from Mycobacterium tuberculosis: A Bacterial Class II PRS?” (PLoS ONE, 2012):
Values joined by “and” are separate entries in the source; they are usually repeats but may differ in a detail not shown here. Equal values may be shown once. “Also recorded” adds a separate entry of the source. Read-outs that look alike come from different tables or passages of the source.

Assays:
MtPRS [1] = molecular target: T1, MtPRS (Mycobacterium tuberculosis, UniProt P9WKE3); assay: Intrinsic tryptophan fluorescence (ITF) titration, binary complex formation at equilibrium; format: binding; settings: for change in intrinsic protein fluorescence upon titration of free MtPRS: absence of second substrate; for Kd: Tris HCl 50 mM pH 7.5, MgCl2 20 mM, read-out: KD (hyperbolic binding to free MtPRS)
Experimental: Intrinsic tryptophan fluorescence titration was carried out to assess binary complex formation at equilibrium between MtPRS and either substrate(s) or product(s) at 25°C [43]. […] Fluorescence titrations were performed by making microliter additions of substrates and products at varying stock concentrations to 1 mL of MtPRS 3 µM, with a maximum dilution of 6%. […] After each ligand titration, the mixture was stirred for 3 minutes to ensure equilibrium binding prior to ITF measurements. […] Control experiments were performed in the same conditions in the absence of MtPRS to verify any inner filter effect, and the values found in the control experiments were subtracted from those obtained in the presence of the enzyme. No corrections for effects of protein dilution on ITF upon addition of buffer A containing MgCl2 20 mM to MtPRS were necessary. Data from equilibrium fluorescence spectroscopy were fitted to Eq. (5) for hyperbolic binding isotherms, in which F is the observed fluorescence signal; F max is the maximal fluorescence intensity; and KD represents the dissociation constant for binding of substrate and/or product to MtPRS. Sigmoidal binding data were fitted Eq. (6), in which F is the observed fluorescence signal, F max is the maximal fluorescence intensity, n is the Hill coefficient, and K’ is a constant comprising interaction factors and the intrinsic dissociation constant. [drawing 5] (5) [drawing 6] (6)

MtPRS [2] = molecular target: T1, MtPRS; assay: MtPRS inhibition assays (coupled assay, fixed R5P and ATP); format: biochemical
Experimental: (§1) All chemicals were purchased from Sigma Aldrich. All enzyme activity assays were performed in triplicate. MtPRS activity was measured by a coupled continuous spectrophotometric assay in quartz cuvettes using a UV-visible Shimadzu spectrophotometer UV2550 equipped with a temperature-controlled cuvette holder. […] Homogeneous recombinant MtOPRT was obtained as described elsewhere. […] The reaction mixture (500 µL) contained 1.8 U MtOPRT, 300 µM OA, 20 mM MgCl2, in Tris HCl 50 mM pH 8.0. Reaction was started by addition of MtPRS (0.24–1.2 µM). One unit of MtPRS is defined as the amount of enzyme necessary to convert 1 µmol of R5P to PRPP per min. Effect of Pi over MtPRS activity was assessed by varying Pi concentration (10–50 mM) in the reaction conditions described above.
All measurements were performed in triplicate. The concentration of inhibitor required to reduce the fractional enzyme activity to half of its initial value in the absence of inhibitor (IC50) was obtained from fitting the data to Eq. (4) for partial inhibition, in which y is the fractional activity of the enzyme in the presence of inhibitor at concentration [I]; y (max) is the maximum value of y observed at [I] = 0; and y min is the minimum limiting value of y at high inhibitor concentrations. [drawing 4] (4)

[3] = molecular target: T2, MtOPRT (M. tuberculosis orotate phosphoribosyltransferase) (Mycobacterium tuberculosis, UniProt P9WHK9); assay: Control measurement of coupled enzyme MtOPRT activity in presence of donors and inhibitors; format: biochemical; settings: compounds present in the assay mixtures of the coupled assays; data not shown
T2 construct: made in house
T2 sequence (P9WHK9 whole entry): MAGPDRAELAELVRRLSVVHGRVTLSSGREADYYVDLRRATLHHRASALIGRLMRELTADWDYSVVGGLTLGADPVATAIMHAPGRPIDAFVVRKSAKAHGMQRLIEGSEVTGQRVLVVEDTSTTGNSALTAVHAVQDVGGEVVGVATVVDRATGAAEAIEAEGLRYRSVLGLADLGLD
Experimental: as §1
Accordingly, the effects of the alternative diphosphoryl group donors, or nucleoside 5′-diphosphate or monophosphate inhibitors, were solely due to changes in MtPRS enzyme activity.

M. tuberculosis PRS [4] = settings: cited from earlier work; for IC50: read-out: IC50 (inhibition of MtPRS activity)
S. typhimurium PRS = test system: S. typhimurium PRS; set-up: method as in PMID 211378; settings: cited from earlier work
M. tuberculosis PRS [5] = settings: ref Alderwick, et al. 2011 [30], cited from earlier work
[6] = test system: Nc1nc2c(ncn2[C@@H]2O[C@H](COP(=O)(O)OP(=O)(O)OP(=O)(O)O)[C@@H](O)[C@H]2O)c(=O)[nH]1; assay: purified protein, by the assay type; settings: pH 8.0
[7] = test system: O=P(O)(O)OC[C@H]1O[C@H](O)[C@H](O)[C@@H]1O; assay: purified protein, by the assay type; settings: pH 8.0
[8] = test system: O=c1ccn([C@@H]2O[C@H](COP(=O)(O)OP(=O)(O)OP(=O)(O)O)[C@@H](O)[C@H]2O)c(=O)[nH]1; assay: purified protein, by the assay type; settings: pH 8.0
[9] = molecular target: T3, MtPRS (Mycobacterium tuberculosis phosphoribosylpyrophosphate synthase) (Mycobacterium tuberculosis, UniProt P9WKE3); settings: diphosphoryl donor varied, R5P fixed at 60 µM, 25°C
[10] = molecular target: T3, MtPRS (Mycobacterium tuberculosis phosphoribosylpyrophosphate synthase); assay: biochemical
[11] = molecular target: the molecule itself; assay: cross-linking; glutaraldehyde vapour cross-linking, 0.3 mg/mL MtPRS in Tris HCl 50 mM pH 7.5 with ADP 5 mM, with or without Pi 50 mM, 30°C, 12% SDS-PAGE
[12] = molecular target: the molecule itself; assay: cross-linking; glutaraldehyde vapour cross-linking, 0.3 mg/mL MtPRS in Tris HCl 50 mM pH 7.5 with ATP 5 mM, with or without Pi 50 mM, 30°C, 12% SDS-PAGE
[13] = molecular target: the molecule itself; assay: cross-linking; glutaraldehyde vapour cross-linking, 0.3 mg/mL MtPRS in Tris HCl 50 mM pH 7.5 with R5P 5 mM, with or without Pi 50 mM, 30°C, 12% SDS-PAGE
[14] = molecular target: the molecule itself; assay: cross-linking; glutaraldehyde vapour cross-linking, 0.3 mg/mL apo MtPRS in Tris HCl 50 mM pH 7.5, with or without Pi 50 mM, 30°C, different incubation times, 12% SDS-PAGE
[15] = molecular target: the molecule itself; assay: as above; remark: listed apart in the source
[16] = read-out: IC50 (partial inhibition of MtPRS activity)
[17] = 37°C, KH2PO4 50 mM pH 8.0, ref Lucarelli, et al. 2010 [31]
[18] = ref Lucarelli, et al. 2010 [31]

O=P(O)(O)OC[C@H]1O[C@H](OP(=O)(O)OP(=O)(O)O)[C@H](O)[C@@H]1O [PRPP, 5-phospho-α-D-ribose 1-diphosphate]
change in intrinsic protein fluorescence upon titration of free MtPRS (MtPRS [1]; 25°C, MtPRS 3 µM): no intrinsic protein fluorescence change; also recorded: No change in ITF could be detected

O=c1ccn([C@@H]2O[C@H](COP(=O)(O)O)[C@@H](O)[C@H]2O)c(=O)[nH]1 [UMP]
IC50 (MtPRS [2]; R5P 60 µM, ATP 300 µM fixed, 0.24 µM MtPRS, no Pi, fit to partial inhibition equation): 3000 µM | effect on MtOPRT enzyme activity [3]: did not have any effect

Nc1nc2c(ncn2[C@@H]2O[C@H](COP(=O)(O)OP(=O)(O)O)[C@@H](O)[C@H]2O)c(=O)[nH]1 [GDP, guanosine 5′-diphosphate]
IC50 (MtPRS [2]; [16]): 900 µM | effect on MtOPRT enzyme activity [3]: did not have any effect | IC50 (M. tuberculosis PRS [4]; in the presence of Pi): > 5000 µM

O=c1ccn([C@@H]2O[C@H](COP(=O)(O)OP(=O)(O)OP(=O)(O)O)[C@@H](O)[C@H]2O)c(=O)[nH]1 [UTP, uridine 5′-triphosphate]
change in intrinsic protein fluorescence upon titration of free MtPRS (MtPRS [1]; 25°C, MtPRS 3 µM): No change in protein fluorescence; also recorded: no change in IFT could be detected | effect on MtOPRT enzyme activity [3]: did not have any effect | activity as alternative substrate, of maximum reported activity using ATP as substrate (S. typhimurium PRS): 3%

Nc1nc2c(ncn2[C@@H]2O[C@H](COP(=O)(O)OP(=O)(O)OP(=O)(O)O)[C@@H](O)[C@H]2O)c(=O)[nH]1 [GTP, guanosine 5′-triphosphate]
Kd (MtPRS [1]; 25°C, MtPRS 3 µM): 21 µM | effect on MtOPRT enzyme activity [3]: did not have any effect | activity as alternative substrate, of maximum reported activity using ATP as substrate (S. typhimurium PRS): 3%

Nc1ncnc2c1ncn2[C@@H]1O[C@H](COP(=O)(O)O)[C@@H](O)[C@H]1O [AMP]
K' (sigmoidal binding, Hill equation) (MtPRS [1]; 25°C, MtPRS 3 µM, MgCl2 20 mM): 109 (±3) µM and 109 µM | Hill coefficient (MtPRS [1]; sigmoidal binding to free MtPRS): 3.2

O=c1[nH]cnc2c1ncn2[C@@H]1O[C@H](COP(=O)(O)OP(=O)(O)OP(=O)(O)O)[C@@H](O)[C@H]1O [ITP]
activity as alternative substrate, of maximum reported activity using ATP as substrate (S. typhimurium PRS): 3%

Nc1ncnc2c1ncn2[C@@H]1O[C@H](COP(=O)(O)OP(=O)(O)OP(=O)(O)O)[C@@H](O)[C@H]1O [ATP, adenosine 5′-triphosphate]
Kd (MtPRS [1]; 25°C, MtPRS 3 µM): 18 µM | effect on MtOPRT enzyme activity [3]: did not have any effect | Vmax (M. tuberculosis PRS [5]; 37°C, KH2PO4 50 mM pH 8.0): 601 µmol⁻¹ min⁻¹ mg⁻¹ | S0.5 (M. tuberculosis PRS [5]): 62.65 µM | n (Hill coefficient) (M. tuberculosis PRS [5]): 1.68 | kcat (M. tuberculosis PRS [4]; [17]): 34.6 (±3) s^−1 | S0.5 (M. tuberculosis PRS [4]; [18]): 260 (±50) µM | n (Hill coefficient) (M. tuberculosis PRS [4]; [18]): 1

MtPRS (Mycobacterium tuberculosis phosphoribosylpyrophosphate synthase) (Mycobacterium tuberculosis H37Rv)
Km [6]: 37 (±9) µM | Vmax [6]: 0.237 µmol/min/mg | kcat [6]: 0.14 ± 0.002 s⁻¹ | kcat/Km [6]: 3800 ± 900 M⁻¹ s⁻¹ | Km [7]: 14 (±2) µM | Vmax [7]: 1.41 µmol/min/mg | kcat [7]: 0.83 ± 0.04 s⁻¹ | kcat/Km [7]: 59000 ± 8000 M⁻¹ s⁻¹ | Km [8]: 52 (±7) µM | Vmax [8]: 0.264 µmol/min/mg | kcat [8]: 0.155 s⁻¹ | kcat/Km [8]: 3000 M⁻¹ s⁻¹

Nc1ncnc2c1ncn2[C@@H]1O[C@H](COP(=O)(O)OP(=O)(O)O)[C@@H](O)[C@H]1O [ADP, adenosine 5′-diphosphate]
IC50 (MtPRS [2]; [16]): 70 µM | effect on MtOPRT enzyme activity [3]: did not have any effect | IC50 (M. tuberculosis PRS [4]; saturating ATP and non-saturating Pi concentrations): 260 µM | IC50 (M. tuberculosis PRS [4]; saturating ATP and saturating Pi concentrations): 400 µM

Nc1ccn([C@@H]2O[C@H](COP(=O)(O)OP(=O)(O)OP(=O)(O)O)[C@@H](O)[C@H]2O)c(=O)n1 [CTP, cytosine 5′-triphosphate]
change in intrinsic protein fluorescence upon titration of free MtPRS (MtPRS [1]; 25°C, MtPRS 3 µM): No change in protein fluorescence; also recorded: no change in IFT could be detected | effect on MtOPRT enzyme activity [3]: did not have any effect | Vmax (apparent) ([9]; pH 8.0, no Pi): 0.111 (±0.003) µmol^−1 min^−1 mg^−1 | kcat ([9]; pH 8.0, no Pi): 0.065 (±0.001) s^−1 | Km ([9]; read-out: KM (apparent), Tris HCl 50 mM pH 8.0, MgCl2 20 mM, no Pi): 26 µM | activity as alternative substrate, of maximum reported activity using ATP as substrate (S. typhimurium PRS): 3%

O=P(O)(O)OC[C@H]1O[C@H](O)[C@H](O)[C@@H]1O [R5P, α-D-ribose 5-phosphate]
Kd (MtPRS [1]; 25°C, MtPRS 3 µM): 61 µM | Km (M. tuberculosis PRS [5]; 37°C, KH2PO4 50 mM pH 8.0): 8.2 µM | Vmax (M. tuberculosis PRS [5]; 37°C, KH2PO4 50 mM pH 8.0): 530 µmol⁻¹ min⁻¹ mg⁻¹ | kcat (M. tuberculosis PRS [5]; 37°C, KH2PO4 50 mM pH 8.0): 60.68 s⁻¹ | Km (M. tuberculosis PRS [4]; [17]): 71 µM | kcat (M. tuberculosis PRS [4]; [17]): 37.1 s⁻¹ | Ki [10]: 211 µM

B1: Mycobacterium tuberculosis phosphoribosylpyrophosphate synthase (MtPRS) (enzyme)
chain: MSHDWTDNRKNLMLFAGRAHPELAEQVAKELDVHVTSQDAREFANGEIFVRFHESVRGCDAFVLQSCPAPVNRWLMEQLIMIDALKRGSAKRITAVMPFYPYARQDKKHRGREPISARLIADLLKTAGADRIVTVDLHTDQIQGFFDGPVDHMRGQNLLTGYIRDNYPDGNMVVVSPDSGRVRIAEKWADALGGVPLAFIHKTRDPRVPNQVVSNRVVGDVAGRTCVLIDDMIDTGGTIAGAVALLHNDGAGDVIIAATHGVLSDPAAQRLASCGAREVIVTNTLPIGEDKRFPQLTVLSIAPLLASTIRAVFENGSVTGLFDGDA
notes: also called prsA gene product; Rv1017c
stoichiometry N [11]: 4 | stoichiometry N [12]: 2 | stoichiometry N [13]: 6 | stoichiometry N [14]: 3 | stoichiometry N [15]: 6
